# According to ChEMBL document CHEMBL3351572, “Almiramide D, cytotoxic peptide from the marine cyanobacterium Oscillatoria nigroviridis” (Bioorg Med Chem, 2014):
# Where a SMILES comes first, the peptide text is derived from it. [ ]: non-standard residue; d: D form. The star is where a group is joined. Oct7ynoyl(2R-Me) = C#CCCCC[C@@H](C)C(=O)*; NMeF = CN[C@@H](Cc1ccccc1)C(=O)O; NMeI = CC[C@H](C)[C@H](NC)C(=O)O; NMeV = CN[C@H](C(=O)O)C(C)C; NMeA = CN[C@@H](C)C(=O)O
# Key:
# A549 = assay: Cytotoxicity against human A549 cells after 48 hrs by alamar blue assay; type: functional, cell-based; conditions: A549, 48 h
# MDA-MB-231 = assay: Cytotoxicity against human MDA-MB-231 cells after 48 hrs by alamar blue assay; type: functional, cell-based; conditions: MDA-MB-231, 48 h
# HT-29 = assay: Cytotoxicity against human HT-29 cells after 48 hrs by alamar blue assay; type: functional, cell-based; conditions: HT-29, 48 h
# [1] = Cytotoxicity against human PC3 cells after 48 hrs by alamar blue assay; type: functional, cell-based; conditions: PC-3, 48 h
# HeLa = assay: Cytotoxicity against human HeLa cells after 48 hrs by alamar blue assay; type: functional, cell-based
# Artemia = assay: Cytotoxicity against brine shrimps larvae assessed as mortality after 48 hrs; type: organism-based; conditions: in vivo
SMILES,IC50 (A549) [µM],IC50 (MDA-MB-231) [µM],IC50 (HT-29) [µM],IC50 [1] [µM],IC50 (HeLa) [µM],Activity (Artemia)
C#CCCCC[C@@H](C)C(=O)N(C)[C@H](C(=O)N(C)[C@H](C(=O)N[C@H](C(=O)N(C)[C@@H](C)C(=O)N(C)[C@@H](Cc1ccccc1)C(N)=O)C(C)C)C(C)C)C(C)C [ALMIRAMIDE B] ({Oct7ynoyl(2R-Me)}-[NMeV][NMeV]V[NMeA][NMeF]-NH2),76,13,100,107,53,–
C#CCCCC[C@@H](C)C(=O)N(C)[C@H](C(=O)N(C)[C@H](C(=O)N[C@H](C(=O)N(C)[C@H](C(=O)N[C@@H](C)C(N)=O)[C@@H](C)CC)[C@@H](C)CC)C(C)C)C(C)C ({Oct7ynoyl(2R-Me)}-[NMeV][NMeV]I[NMeI]A-NH2),59,821,91,62,17,–
COc1cccc2c1C(=O)c1c(O)c3c(c(O)c1C2=O)C[C@@](O)(C(=O)CO)C[C@@H]3O[C@H]1C[C@H](N)[C@H](O)[C@H](C)O1 [DOXORUBICIN],14,–,–,17,–,Non-toxic
